Results on four compounds are retold here after publication PMC2994877, “A Full Pharmacological Analysis of the Three Turkey β-Adrenoceptors and Comparison with the Human β-Adrenoceptors” (PLoS ONE, 2010).

Read-outs that look alike come from different tables or passages of the source.

For assay [1], the target named is T1, turkey β3C-adrenoceptor (tβ3C) (Meleagris gallopavo, UniProt A0A803YLI8). Nature of the assay: 3H-CGP12177 whole cell binding, CHO tβ3C cells.
Assay [2] concerns the target T2, turkey β4C-adrenoceptor (tβ4C) (Meleagris gallopavo, UniProt P43141).
T2 construct: expressed in transfected cells
In words: 3H-cAMP accumulation, CHO tβ4C cells. In kind it is cell-based. The note with it: for % isop max: 3H-cAMP, overall response as % of 10 µM isoprenaline; for % site 1: % of response occurring via site 1, tβ4C.

The target in assay [3] is T1, turkey β3C-adrenoceptor (tβ3C).
Another assay deals with Human β3-adrenoceptor. Particulars: Human β3, given for comparison; ref 25 and 30; cited from earlier work.
Assay [4] deals with T1, turkey β3C-adrenoceptor (tβ3C). In words: cell-based.
Assay [5] deals with T2, turkey β4C-adrenoceptor (tβ4C). In words: cell-based. Format: binding. The note with it: read-out: KD of 3H-CGP12177; saturation binding, stable CHO tβ4C cell line.
The subject of assay [6] is parent CHO cells. Nature of the assay: 3H-CGP12177 binding, parent CHO cells. The note with it: parent CHO cells without transfected receptor. On the procedure: Cells were grown to confluence in white-sided tissue culture treated 96-well view plates. ^3H-CGP12177 whole cell binding was performed as previously described. […] For competition binding, the media was removed from each well, 100 µl of serum-free media containing the competing ligand at twice the final required concentration was added to each well followed immediately by a 100 µl of a fixed concentration of ^3H-CGP12177 (1∶2 dilution in well, final well concentrations of 1.24 nM to 12.10 nM). The cells were incubated for 2 hours at 37°C, 5% CO2 humidified atmosphere. For all plates, the cells were washed twice by the addition and removal of 200 µl 4°C phosphate buffered saline. 100 µl Microscint 20 was added to each well, a white sticky base applied to the underside and a sealant top applied to the top of the plate. The plates were left at room temperature overnight in the dark and the plates counted on a Topcount at 21°C for 2 minutes per well.

The target of assay [7] is T2, turkey β4C-adrenoceptor (tβ4C). Nature of the assay: cell-based. In kind it is cell-based. Particulars: CRE-SPAP, % of 10 µM isoprenaline maximum, CHO tβ4C cells.
For assay [8], the system named is parent CHO CRE-SPAP cells. In words: agonist response in parent CHO CRE-SPAP cells. In kind it is cell-based. The source says: The second piece of pharmacological evidence for more than one conformation is the concentrations of antagonists required to inhibit the CGP12177-stimulatory response. […] This is similar to observations at the β1-adrenoceptor in rodents and mammals [6]–[7] [9] [11]. […] There was no response to any ligands, including CGP12177 in the parent CHO CRE-SPAP cells and thus the CGP12177 agonist response was not occurring at a different receptor natively expressed in the cells.

Assay [9] deals with parent CHO cells. Nature of the assay: 3H-cAMP accumulation, parent CHO cells. Particulars: parent CHO cells without transfected receptor. On the technique in general: Changes in cAMP serve as a functional read-out for many G protein-coupled receptors.

T2 sequence (P43141 whole entry): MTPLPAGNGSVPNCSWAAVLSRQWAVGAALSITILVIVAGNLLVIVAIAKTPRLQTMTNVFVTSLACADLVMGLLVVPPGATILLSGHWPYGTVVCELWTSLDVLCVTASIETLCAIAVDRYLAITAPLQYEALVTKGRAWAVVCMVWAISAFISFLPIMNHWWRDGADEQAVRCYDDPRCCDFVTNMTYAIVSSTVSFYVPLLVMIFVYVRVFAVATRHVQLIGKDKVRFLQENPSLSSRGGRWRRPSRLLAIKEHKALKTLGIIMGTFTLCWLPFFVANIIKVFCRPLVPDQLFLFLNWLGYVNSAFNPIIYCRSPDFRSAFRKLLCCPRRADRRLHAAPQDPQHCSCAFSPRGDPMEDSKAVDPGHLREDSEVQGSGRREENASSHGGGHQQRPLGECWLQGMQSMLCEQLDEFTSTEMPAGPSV
T1 sequence (A0A803YLI8 entry or part of it): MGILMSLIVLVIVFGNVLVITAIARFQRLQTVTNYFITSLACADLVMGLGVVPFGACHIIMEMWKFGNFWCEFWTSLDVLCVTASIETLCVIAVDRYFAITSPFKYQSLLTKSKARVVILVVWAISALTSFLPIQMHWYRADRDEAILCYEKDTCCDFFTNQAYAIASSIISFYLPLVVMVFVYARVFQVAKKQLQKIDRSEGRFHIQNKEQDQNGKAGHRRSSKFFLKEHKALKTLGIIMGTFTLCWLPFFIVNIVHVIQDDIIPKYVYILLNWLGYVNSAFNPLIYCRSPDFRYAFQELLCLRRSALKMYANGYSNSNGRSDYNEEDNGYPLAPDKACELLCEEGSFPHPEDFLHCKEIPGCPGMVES

Usually Kd stands for the equilibrium constant for the complex coming apart. Usually EC50 stands for the midpoint of the concentration-response curve. For `CC(C)(C)NC[C@H](O)COc1cccc2[nH]c(C#N)cc12` [S-Cyanopindolol], the Kd in assay [1] is 0.00427 nM. Moreover, the “shape of agonist concentration response” value is given as “two component response” in assay [2] (3H-cAMP accumulation, tβ4C) and “one-component response” in assay [3] (3H-cAMP accumulation, tβ3C). In assay [2] (tβ4C), the “% isop max” value amounted to 16.4±2.7%. The “% site 1” value is 44.4±2.0% in assay [2] and 100% in [3] (% of response occurring via site 1, tβ3C). Also, the “Log EC502” value in [3] (3H-cAMP accumulation, tβ3C, one-component response (same value as EC501)) is −10.60±0.13. For the same compound, the “Log KD” value on Human β3-adrenoceptor was −8.36. The compound further gave an EC50 in assay [4] of 0.0251 nM. Moreover, in assay [4] (read-out: % isop max), the Emax is 4.6 ± 0.7%.

As to ^3H-CGP12177, the Kd in assay [1] (read-out: KD of 3H-CGP12177, saturation binding, stable CHO tβ3C cell line) is 0.29 ± 0.02 nM; in assay [5] it was 0.58 ± 0.06 nM. For the same compound, the “specific binding of 3H-CGP12177” value with parent CHO cells [6] was “no specific binding”.

Take `CC(C)(C)NCC(O)COc1cccc2[nH]c(=O)[nH]c12` (stereo not drawn) [CGP12177]: the “% isop max” value in assay [7] is 53.4±2.2%; in [2] (tβ4C), 17.4±0.7%. Also, the “% site 1” value in assay [2] came out at 41.3±7.2%. In assay [8], the agonist response result is recorded as “no response”.

For `C=C[C@@]1(C)CC(=O)[C@]2(O)[C@@]3(C)[C@@H](O)CCC(C)(C)[C@@H]3[C@H](O)[C@H](OC(C)=O)[C@@]2(C)O1` [forskolin], the 3H-cAMP accumulation response in the assay on parent CHO cells [9] turned out to be 21.5±2.2 fold over basal.
